From article PMC6332220, “Synthesis, Characterization and Biological Evaluation of Some Quinoxaline Derivatives: A Promising and Potent New Class of Antitumor and Antimicrobial Agents” (Molecules, 2015)
In brackets after ≈: the same amount, converted by molar mass.

Key:
[1] = tested on: MCF-7 (breast adenocarcinoma); assay: In vitro cytotoxicity, SRB cell growth assay, MCF-7; settings: Homo sapiens, MCF7, 48 h, read-out: IC50 (μg/mL) MCF-7
Procedure: (§1) The in vitro cytotoxic activity of the newly synthesized compounds against human breast cell line (MCF7), non-small cell lung cancer NCIH460, CNS cancer SF-268 and WI 38 (normal fibroblast cells) were evaluated using doxorubicin as the reference drug according to the method reported by Skehan et al..
(§2) The newly synthesized compounds were evaluated in vitro against three human cancer cell lines; which are MCF-7 (breast adenocarcinoma), NCI-H460 (non-small cell lung cancer) and SF-268 (CNS cancer), and WI 38 (normal fibroblast cells) were used in this study. MCF-7 was obtained from the European Collection of Cell Cultures (ECACC, Salisbury, UK) but NCI-H460, SF-268 and WI 38 were kindly provided by the National Cancer Institute (NCI, Cairo, Egypt). They grow as monolayer and routinely maintained RPMI-1640 medium supplemented with 5% heat inactivated fetal bovine serum (FBS), 2 mM glutamine and antibiotics (penicillin 100 U/mL, streptomycin 100 µg/mL), at 37 °C in a humidified atmosphere containing 5% CO2. Exponentially growing cells were obtained by plating 1.5 × 10^5 cells/mL for MCF-7 and SF-268, and 0.75 × 10^4 cells/mL for NCI-H460 followed by 24 h of incubation. The effect of the vehicle solvent (DMSO) on the growth of these cell lines was evaluated in all experiments by exposing untreated control cells to the maximum concentration (0.5%) of DMSO used in each assay.
(§3) The effect of compounds on the in vitro growth of human tumor cell lines were evaluated according to the procedure adopted by the National Cancer Institute ([…]) in the “In vitro Anticancer Drug Discovery Screen” that uses the protein-binding dye sulforhodamine B (SRB) to assess cell growth. In the assay protocol, all cells were incubated at 37 °C under humidified atmosphere containing 5% CO2. Briefly, exponentially cells growing in 96-well plates were then exposed for 48 h to five serial concentrations of each compound, starting from a maximum concentration of 150 μg/mL. Following this exposure period adherent cells were fixed, washed and stained. The bound stain was solubilized and the absorbance was measured at 492 nm in a plate reader (Bio-Tek Instruments Inc., Power wave XS, Winston, NC, USA). For each test compound and cell line, a dose response curve was obtained and the inhibitory concentration of 50% (IC50), corresponding to the concentration of the compounds that inhibited 50% of the net cell growth was calculated as described elsewhere. Doxorubicin was used as a positive control and tested in the same manner.

[2] = tested on: WI 38 (normal fibroblast cells); assay: In vitro cytotoxicity, SRB cell growth assay, normal cells WI 38; assay type: cell-based, human; settings: 48 h exposure, non-cytotoxic = IC50 >100 μg/mL; for IC50: Homo sapiens, WI-38, 48 h
Procedure: as §1, §2, §3

Salmonella typhimurium = assay: Disk diffusion, Salmonella typhimurium; assay type: cell-based; settings: Gram negative, 8.0 mm disks, 10 μL
Procedure: (§4) The disk diffusion method was used for determination of the antimicrobial activity using ampicillin, gentamicin and amphotericin B as reference drugs. The results were recorded for each compounds as the average diameter as inhibition zones (IZ) of bacterial or fungal growth around the discs in mm as shown in Table 2.
(§5) Antimicrobial activities were carried out against highly pathogenic strains; three strains of Gram positive bacteria (Bacillus subtilis, Staphylococcus aureus and Streptococcus faecalis), four strains of Gram negative bacteria (Escherichia coli, Neisseria gonorrhoeae, Pseudomonas aeruginosa and Salmonella typhimurium) and three fungi strains (Aspergillus flavus, Aspergillus fumigatus and Candida albicans) isolated from primary agar plates. Antimicrobial activity of the tested samples was determined using a modified Kriby-Bauer disk diffusion method. Briefly, 100 µL of the test bacteria/fungi were grown in 10 mL of fresh media until they reached a count approximately 10^8 cells/mL for bacteria or 10^5 cells/mL for fungi. 100 µL of microbial suspension was spread onto agar plates corresponding to the broth in which they were maintained. The inoculated plates of bacterial strains were incubated at 35–37 °C for 24–48 h, while the inoculated plates of fungal strains such as A. flavus and A. fumigatus were incubated at 25 °C for 48 h and yeast as C. albicans was incubated at 30 °C for 24–48 h.
(§6) The agar disk diffusion (qualitative) method was used in this investigation for determination of the preliminary antibacterial and antifungal activities. The agar used was Mueller-Hinton agar plates that are rigorously tested for composition and pH. Further the depth of the agar in the plate is a factor to be considered in the disk diffusion method.
(§7) Reference drugs: ampicillin was used as a standard antibacterial drug for Gram positive bacteria, gentamicin as a standard antibacterial drug for Gram negative bacteria and amphotericin B as antifungal standard drug.
(§8) Bacterial and fungal strains were spread onto the surface of the agar plates using sterile cotton swabs. For evaluation of antibacterial activities, blank paper disks (Schleicher & Schuell, Alicante, Spain) with a diameter of 8.0 mm were saturated with 10 μL of tested concentration of the stock solutions. Disks were dried and then placed onto inoculated agar plates. The plates of bacterial strains were reincubated at 35–37 °C for 24–48 h, while the plates of fungal strains such as A. flavus and A. fumigatus were reincubated at 25 °C for 48 h and yeast as C. albicans was reincubated at 30 °C for 24–48 h as mentioned above. […] For an accurate analysis, tests were run in triplicate for each strain to avoid any error as described in Table 2.

Aspergillus flavus = assay: Disk diffusion, Aspergillus flavus; assay type: cell-based; settings: Fungi, 8.0 mm disks, 10 μL
Procedure: as §4, §5, §6, §7, §8
Disk diffusion method for filamentous fungi testing by using approved standard method (M02-A11) developed by the CLSI for evaluating the susceptibilities of filamentous fungi to antifungal agents. Disk diffusion method for yeasts developed by using approved standard method (M44-A2) by the CLSI [44]. Agar-based methods such as disk diffusion can be good alternatives because they are simpler and faster than broth-based methods.

Bacillus subtilis = assay: MIC by broth dilution, Bacillus subtilis; assay type: cell-based; settings: Bacillus subtilis, Gram positive, 0.98-125 µg/mL, read-out: Minimum Inhibitory Concentration (MIC) (µg/mL) Bacillus subtilis
Procedure: (§9) In this study, MIC (quantitative method) was used for evaluation of the antimicrobial activity of tested compounds. Screening was evaluated in vitro using the Broth dilution method according to CLSI [45]. All the bacteria were incubated and activated at 30 °C for 24 h inoculation into nutrient broth and the fungi were incubated in malt extract broth for 48 h. The compounds were dissolved in DMSO and then diluted using […] Mueller-Hinton broth. […] In each case triplicate tests were performed and the average was taken as the final reading. The tubes were then inoculated with the test organisms, grown in their suitable broth at 37 °C for 24 h for tested microorganisms (1 × 10^8 CFU/mL for bacteria and 1 × 10^6 CFU/mL of fungi), each 5 mL received 0.1 mL of the above inoculum and incubated at 37 °C for 24 h.

Streptococcus faecalis = assay: MIC by broth dilution, Streptococcus faecalis; assay type: cell-based; settings: Enterococcus faecalis, Gram positive, 0.98-125 µg/mL, read-out: Minimum Inhibitory Concentration (MIC) (µg/mL) Streptococcus faecalis
Procedure: as §9

Escherichia coli = assay: MIC by broth dilution, Escherichia coli; assay type: cell-based; settings: Escherichia coli, Gram negative, 0.98-125 µg/mL, read-out: Minimum Inhibitory Concentration (MIC) (µg/mL) Escherichia coli
Procedure: as §9

| MIC (Bacillus subtilis) [µg/mL] | MIC (Streptococcus faecalis) [µg/mL] | MIC (Escherichia coli) [µg/mL] | Compound | IC50 [1] [µg/mL] | IC50 [2] [µg/mL] | Inhibition Zone Diameter (IZ) (mm) Salmonella typhimurium (Salmonella typhimurium) [mm] | Inhibition Zone Diameter (IZ) (mm) Aspergillus flavus (Aspergillus flavus) | IC50 (μg/mL) WI 38 [2] [µg/mL] |
| --- | --- | --- | --- | --- | --- | --- | --- | --- |
| 31.2 (≈ 93.8 µM) | 62.5 (≈ 188 µM) | 125 (≈ 375 µM) | Brc1ccc2nc(N3CCCCC3)c3nnnn3c2c1 [Compound 5a, 8-Bromo-4-(piperidin-1-yl)tetrazolo[1,5-a]quinoxaline] | 0.01 ± 0.001 (≈ 0.03 µM) | > 100 | 14 | R (R (IZ = 0 mm)) |  |
| 1.95 (≈ 5.82 µM) | 3.9 (≈ 11.6 µM) | 1.95 (≈ 5.82 µM) | Brc1ccc2nc(N3CCOCC3)c3nnnn3c2c1 [Compound 5b, 8-Bromo-4-(morpholin-4-yl)tetrazolo[1,5-a]quinoxaline] | 0.02 ± 0.002 (≈ 0.0597 µM) | > 100 | 13 | R (R (IZ = 0 mm)) |  |

The remaining lines, values behind:

| Compound | MIC (Bacillus subtilis) [µg/mL] | MIC (Streptococcus faecalis) [µg/mL] | MIC (Escherichia coli) [µg/mL] | IC50 [1] [µg/mL] | IC50 [2] [µg/mL] | Inhibition Zone Diameter (IZ) (mm) Salmonella typhimurium (Salmonella typhimurium) [mm] | Inhibition Zone Diameter (IZ) (mm) Aspergillus flavus (Aspergillus flavus) | IC50 (μg/mL) WI 38 [2] [µg/mL] |
| --- | --- | --- | --- | --- | --- | --- | --- | --- |
| NNc1nc2cc(Br)ccc2nc1Cl [Compound 3, 6-Bromo-2-chloro-3-hydrazinylquinoxaline] | 1.95 (≈ 7.13 µM) | 15.6 (≈ 57.1 µM) | 3.9 (≈ 14.3 µM) | 36 ± 7.33 (≈ 132 µM) | 32.2 ± 6.54 (≈ 118 µM) | 13 | R (R (IZ = 0 mm)) |  |
| Brc1ccc2c(c1)n1nnnc1c1nnnn21 [Compound 11, 9-Bromoditetrazolo[1,5-a:5′,1′-c]quinoxaline] | 0.98 (≈ 3.37 µM) | 62.5 (≈ 215 µM) | 62.5 (≈ 215 µM) | 1.18 ± 1.03 (≈ 4.05 µM) | > 100 | 18 | R (R (IZ = 0 mm)) | 56.85 ± 4.05 (≈ 195 µM) |
| Cc1cc(C)n(-c2nc3cc(Br)ccc3nc2NN)n1 [Compound 14, 6-Bromo-3-(3,5-dimethyl-1H-pyrazol-1-yl)-2-hydrazinyl quinoxaline] | 1.95 (≈ 5.85 µM) | 1.95 (≈ 5.85 µM) | 3.9 (≈ 11.7 µM) | 30.3 ± 3.86 (≈ 91 µM) | 58.7 ± 8.65 (≈ 176 µM) | 10 | R (R (IZ = 0 mm)) |  |
| Clc1nc2ccc(Br)cc2n2nnnc12 [Compound 4, 8-Bromo-4-chlorotetrazolo[1,5-a]quinoxaline] | 0.98 (≈ 3.44 µM) | 0.98 (≈ 3.44 µM) | 3.9 (≈ 13.7 µM) | 0.02 ± 0.006 (≈ 0.0703 µM) | > 100 | 17 | 13 mm |  |
| NC1=NN(c2nc3ccc(Br)cc3nc2N2N=C(N)CC2=O)C(=O)C1 [Compound 16, 6-Bromo-2,3-bis(3-amino-1H-pyrazol-5(4H)-one)quinoxaline] | 1.95 (≈ 4.84 µM) | 31.2 (≈ 77.5 µM) | 3.9 (≈ 9.67 µM) | 12.8 ± 1.46 (≈ 31.8 µM) | 30 ± 2.36 (≈ 74.5 µM) | 10 | R (R (IZ = 0 mm)) |  |
| NNc1nc2ccc(Br)cc2nc1NN [Compound 9, 6-Bromo-2,3-dihydrazinylquinoxaline] | 0.98 (≈ 3.64 µM) | 0.98 (≈ 3.64 µM) | 1.95 (≈ 7.25 µM) | 37.1 ± 7.34 (≈ 138 µM) | 30.6 ± 6.21 (≈ 114 µM) | 17 | R (R (IZ = 0 mm)) |  |
